{
  "source": "ChEMBL document CHEMBL4130451",
  "about": "“Design and Synthesis of N-Aryl Phenoxyethoxy Pyridinones as Highly Selective and CNS Penetrant mGlu3 NAMs” (ACS Med Chem Lett, 2017)",
  "key": {"[1]": {"biological_target": "D(2) dopamine receptor (Homo sapiens) (UniProt P14416)", "assay": "Inhibition of human dopamine D2S receptor at 10 uM relative to control"}, "[2]": {"biological_target": "Alpha-2A adrenergic receptor (Homo sapiens) (UniProt P08913)", "assay": "Inhibition of human adrenergic alpha 2A receptor at 10 uM relative to control"}, "[3]": {"biological_target": "Sigma non-opioid intracellular receptor 1 (Homo sapiens) (UniProt Q99720)", "sequence (Q99720 whole entry)": "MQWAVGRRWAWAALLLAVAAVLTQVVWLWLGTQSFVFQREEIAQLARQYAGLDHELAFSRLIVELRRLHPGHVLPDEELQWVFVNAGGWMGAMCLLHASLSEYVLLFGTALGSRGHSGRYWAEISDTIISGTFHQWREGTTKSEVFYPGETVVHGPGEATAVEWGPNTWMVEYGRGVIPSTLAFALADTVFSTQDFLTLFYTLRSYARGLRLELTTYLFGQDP", "assay": "Inhibition of human sigma 1 receptor at 10 uM relative to control"}, "Rattus norvegicus [4]": {"species": "Rattus norvegicus", "assay": "Inhibition of rat kainate glutamate receptor at 10 uM relative to control"}, "Cytochrome P450 1A2": {"biological_target": "Cytochrome P450 1A2 (Homo sapiens, UniProt P05177)", "sequence (P05177 whole entry)": "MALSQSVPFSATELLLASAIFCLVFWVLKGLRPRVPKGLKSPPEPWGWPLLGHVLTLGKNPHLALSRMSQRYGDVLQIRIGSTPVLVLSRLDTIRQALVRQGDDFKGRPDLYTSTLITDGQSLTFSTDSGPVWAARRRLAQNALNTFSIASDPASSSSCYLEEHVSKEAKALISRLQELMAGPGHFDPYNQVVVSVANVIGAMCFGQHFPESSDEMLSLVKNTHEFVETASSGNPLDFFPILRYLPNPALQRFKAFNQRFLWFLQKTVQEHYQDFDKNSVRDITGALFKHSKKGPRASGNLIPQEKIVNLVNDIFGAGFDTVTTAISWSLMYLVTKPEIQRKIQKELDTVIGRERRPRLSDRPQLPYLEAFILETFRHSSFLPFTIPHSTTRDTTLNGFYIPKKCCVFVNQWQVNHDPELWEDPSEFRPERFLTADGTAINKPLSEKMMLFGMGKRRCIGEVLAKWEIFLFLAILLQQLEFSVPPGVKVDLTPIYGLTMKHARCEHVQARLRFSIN", "assay": "Inhibition of CYP1A2 in human liver microsomes using phenacetin as substrate after 15 mins in presence of NADPH by LC/MS/MS analysis", "format": "ADME"}, "Rattus norvegicus [5]": {"species": "Rattus norvegicus", "assay": "Inhibition of rat central GABA-A receptor muscimol site at 10 uM relative to control"}, "[6]": {"biological_target": "Cannabinoid receptor 1 (Homo sapiens) (UniProt P21554)", "assay": "Inhibition of human cannabinoid CB1 receptor at 10 uM relative to control"}, "[7]": {"biological_target": "D(1A) dopamine receptor (Homo sapiens) (UniProt P21728)", "sequence (P21728 whole entry)": "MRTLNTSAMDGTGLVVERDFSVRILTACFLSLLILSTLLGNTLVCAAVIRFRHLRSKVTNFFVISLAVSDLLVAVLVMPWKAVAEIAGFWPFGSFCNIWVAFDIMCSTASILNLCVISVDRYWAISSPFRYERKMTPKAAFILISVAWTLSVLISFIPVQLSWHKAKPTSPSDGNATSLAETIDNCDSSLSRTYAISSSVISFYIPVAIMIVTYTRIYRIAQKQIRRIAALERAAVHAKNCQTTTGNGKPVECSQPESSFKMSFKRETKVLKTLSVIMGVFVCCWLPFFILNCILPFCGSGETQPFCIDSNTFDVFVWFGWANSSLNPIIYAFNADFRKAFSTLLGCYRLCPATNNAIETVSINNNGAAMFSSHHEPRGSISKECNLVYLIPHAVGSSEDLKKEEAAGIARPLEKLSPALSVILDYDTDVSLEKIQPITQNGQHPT", "assay": "Inhibition of human dopamine D1 receptor at 10 uM relative to control"}, "[8]": {"biological_target": "Adenosine receptor A3 (Homo sapiens) (UniProt P0DMS8)", "sequence (P0DMS8 whole entry)": "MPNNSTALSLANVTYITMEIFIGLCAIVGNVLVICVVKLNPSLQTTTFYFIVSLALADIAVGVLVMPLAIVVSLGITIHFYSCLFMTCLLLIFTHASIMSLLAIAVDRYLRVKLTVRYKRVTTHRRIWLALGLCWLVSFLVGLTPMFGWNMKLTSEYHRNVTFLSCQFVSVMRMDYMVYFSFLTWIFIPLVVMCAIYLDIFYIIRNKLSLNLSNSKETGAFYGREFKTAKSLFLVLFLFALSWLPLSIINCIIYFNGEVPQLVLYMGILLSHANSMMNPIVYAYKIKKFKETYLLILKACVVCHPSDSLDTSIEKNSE", "assay": "Inhibition of human adenosine A3 receptor at 10 uM relative to control"}, "[9]": {"biological_target": "Metabotropic glutamate receptor 3 (Rattus norvegicus, UniProt P31422)", "assay": "Negative allosteric modulation of rat mGlu3 receptor expressed in TREX cells coexpressing Galpha15 assessed as inhibition of glutamate induced-calcium mobilization preincubated for 2.3 mins followed by glutamate addition measured for 2.6 mins by Fluo-4 AM dye based fluorescence assay", "format": "functional, cell-based"}, "[10]": {"assay": "Drug uptake in Harlan CD-1 mouse brain at 3 mg/kg, ip by LC/MS-MS analysis", "format": "ADME, organism-based", "settings": "in vivo, read-out: Drug uptake"}, "[11]": {"biological_target": "Metabotropic glutamate receptor 2 (Rattus norvegicus, UniProt P31421)", "sequence (P31421 whole entry, looked up)": "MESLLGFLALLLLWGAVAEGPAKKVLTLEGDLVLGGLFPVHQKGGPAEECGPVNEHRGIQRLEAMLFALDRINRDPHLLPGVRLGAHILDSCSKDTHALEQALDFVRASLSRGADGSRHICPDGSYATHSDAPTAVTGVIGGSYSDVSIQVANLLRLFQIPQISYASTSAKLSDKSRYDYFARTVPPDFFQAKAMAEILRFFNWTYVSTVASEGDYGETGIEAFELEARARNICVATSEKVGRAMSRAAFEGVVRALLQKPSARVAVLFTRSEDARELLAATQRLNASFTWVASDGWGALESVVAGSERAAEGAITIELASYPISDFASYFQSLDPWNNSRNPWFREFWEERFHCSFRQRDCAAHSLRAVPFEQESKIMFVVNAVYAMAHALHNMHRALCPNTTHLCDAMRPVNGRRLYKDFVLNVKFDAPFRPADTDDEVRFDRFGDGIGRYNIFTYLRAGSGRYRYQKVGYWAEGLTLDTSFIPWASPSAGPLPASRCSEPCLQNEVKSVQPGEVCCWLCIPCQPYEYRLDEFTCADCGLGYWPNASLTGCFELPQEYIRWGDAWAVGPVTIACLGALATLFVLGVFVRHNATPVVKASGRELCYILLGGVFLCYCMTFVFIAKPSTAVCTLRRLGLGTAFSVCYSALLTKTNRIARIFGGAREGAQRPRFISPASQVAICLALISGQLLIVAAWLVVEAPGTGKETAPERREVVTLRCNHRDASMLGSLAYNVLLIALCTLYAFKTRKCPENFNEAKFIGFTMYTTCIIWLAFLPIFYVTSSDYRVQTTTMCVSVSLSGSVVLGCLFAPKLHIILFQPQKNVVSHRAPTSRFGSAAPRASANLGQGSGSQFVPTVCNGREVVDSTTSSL", "assay": "Negative allosteric modulation of rat mGlu2 receptor expressed in HEK293 cells coexpressing Galpha15 assessed as inhibition of glutamate induced-calcium mobilization preincubated for 2.3 mins followed by glutamate addition measured for 1.9 mins by Fluo-4 AM dye based fluorescence assay", "format": "functional, cell-based"}, "[12]": {"biological_target": "Histamine H3 receptor (Homo sapiens) (UniProt Q9Y5N1)", "sequence (Q9Y5N1 whole entry)": "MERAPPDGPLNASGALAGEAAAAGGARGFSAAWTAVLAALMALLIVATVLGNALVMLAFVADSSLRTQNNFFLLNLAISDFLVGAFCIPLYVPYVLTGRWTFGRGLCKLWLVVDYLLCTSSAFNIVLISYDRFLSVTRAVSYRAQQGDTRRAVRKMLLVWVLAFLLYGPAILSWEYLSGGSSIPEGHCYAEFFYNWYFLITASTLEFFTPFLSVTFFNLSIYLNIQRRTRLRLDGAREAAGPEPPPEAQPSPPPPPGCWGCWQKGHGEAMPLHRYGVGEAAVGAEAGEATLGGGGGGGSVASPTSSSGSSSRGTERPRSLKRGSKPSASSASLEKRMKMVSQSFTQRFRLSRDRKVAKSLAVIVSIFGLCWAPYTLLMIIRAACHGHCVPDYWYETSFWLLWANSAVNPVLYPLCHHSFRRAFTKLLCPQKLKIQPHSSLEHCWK", "assay": "Inhibition of human histamine H3 receptor at 10 uM relative to control"}, "Rattus norvegicus [13]": {"species": "Rattus norvegicus", "assay": "Inhibition of rat thyroid hormone receptor at 10 uM relative to control"}, "Oryctolagus cuniculus": {"species": "Oryctolagus cuniculus", "assay": "Inhibition of rabbit P2X receptor at 10 uM relative to control"}, "Rattus norvegicus [14]": {"species": "Rattus norvegicus", "assay": "Inhibition of rat N-type calcium channel […] at 10 uM relative to control"}, "[15]": {"assay": "Fraction unbound in mouse plasma at 5 uM after 4 hrs by equilibrium dialysis based LC/MS/MS analysis", "format": "ADME, cell-free"}, "[16]": {"biological_target": "Metabotropic glutamate receptor 1 (Homo sapiens) (UniProt Q13255)", "assay": "Negative allosteric modulation of human mGlu1 receptor expressed in TREX293 cells assessed as inhibition of glutamate induced-calcium mobilization preincubated for 2.3 mins followed by glutamate addition measured for 2.6 mins by Fluo-4 AM dye based fluorescence assay", "format": "functional, cell-based"}, "[17]": {"assay": "Brain to plasma partition coefficient, Kp of the compound in Harlan CD-1 mouse at 3 mg/kg, ip by LC/MS-MS analysis", "format": "ADME, organism-based"}, "[18]": {"biological_target": "Glutamate NMDA receptor (Rattus norvegicus) (UniProt P35439+Q00959+Q00960+Q00961+Q62645+Q8VHN2+Q9R1M7)", "assay": "Inhibition of rat glutamate NMDA receptor agonist binding site at 10 uM relative to control", "format": "protein-complex assay"}, "[19]": {"biological_target": "Androgen receptor (Rattus norvegicus) (UniProt P15207)", "assay": "Inhibition of rat androgen receptor at 10 uM relative to control"}, "[20]": {"biological_target": "Muscarinic acetylcholine receptor M3 (Homo sapiens) (UniProt P20309)", "assay": "Inhibition of human muscarinic M3 receptor at 10 uM relative to control"}, "Mus musculus": {"tested_on": "Mus musculus", "assay": "Antidepressant activity in CD-1 mouse assessed as reduction in immobility time at 3 mg/kg administered ip 15 mins prior to test measured for 6 mins by tail suspension test", "format": "functional, organism-based"}, "[21]": {"biological_target": "Beta-1 adrenergic receptor (Homo sapiens) (UniProt P08588)", "sequence (P08588 whole entry, looked up)": "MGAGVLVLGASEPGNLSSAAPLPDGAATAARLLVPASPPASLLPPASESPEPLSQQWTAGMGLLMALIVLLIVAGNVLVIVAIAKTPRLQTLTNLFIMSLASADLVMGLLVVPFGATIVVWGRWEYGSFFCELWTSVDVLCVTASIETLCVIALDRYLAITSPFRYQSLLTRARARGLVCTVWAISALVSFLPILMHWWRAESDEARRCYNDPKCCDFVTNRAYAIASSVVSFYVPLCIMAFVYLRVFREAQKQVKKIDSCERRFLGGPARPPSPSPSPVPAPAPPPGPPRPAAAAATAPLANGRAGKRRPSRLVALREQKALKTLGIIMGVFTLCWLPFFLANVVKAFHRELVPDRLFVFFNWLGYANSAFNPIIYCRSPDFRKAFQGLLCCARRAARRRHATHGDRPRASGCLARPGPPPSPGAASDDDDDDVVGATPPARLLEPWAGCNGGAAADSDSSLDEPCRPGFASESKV", "assay": "Inhibition of human adrenergic beta1 receptor at 10 uM relative to control"}, "[22]": {"biological_target": "Platelet-activating factor receptor (Homo sapiens) (UniProt P25105)", "assay": "Inhibition of human platelet activating factor receptor at 10 uM relative to control"}, "Rattus norvegicus [23]": {"species": "Rattus norvegicus", "assay": "Inhibition of rat sodium channel site 2 at 10 uM relative to control"}, "[24]": {"biological_target": "5-hydroxytryptamine receptor 3A (Homo sapiens) (UniProt P46098)", "sequence (P46098 whole entry)": "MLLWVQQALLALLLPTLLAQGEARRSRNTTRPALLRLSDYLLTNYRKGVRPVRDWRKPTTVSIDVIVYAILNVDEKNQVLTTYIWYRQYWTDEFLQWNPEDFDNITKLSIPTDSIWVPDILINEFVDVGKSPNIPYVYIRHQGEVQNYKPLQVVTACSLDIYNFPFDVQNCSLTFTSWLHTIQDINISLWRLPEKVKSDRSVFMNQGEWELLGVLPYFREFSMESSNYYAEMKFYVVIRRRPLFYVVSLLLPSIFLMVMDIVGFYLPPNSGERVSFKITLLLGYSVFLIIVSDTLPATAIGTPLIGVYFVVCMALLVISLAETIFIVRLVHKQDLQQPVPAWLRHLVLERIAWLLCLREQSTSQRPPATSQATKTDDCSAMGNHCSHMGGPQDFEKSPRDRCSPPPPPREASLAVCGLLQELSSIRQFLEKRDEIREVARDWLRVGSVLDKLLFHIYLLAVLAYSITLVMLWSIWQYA", "assay": "Inhibition of human 5-HT3 receptor at 10 uM relative to control"}, "[25]": {"biological_target": "Substance-P receptor (Homo sapiens) (UniProt P25103)", "assay": "Inhibition of human tachykinin NK1 receptor at 10 uM relative to control"}, "[26]": {"biological_target": "Neuropeptide Y receptor type 1 (Homo sapiens) (UniProt P25929)", "assay": "Inhibition of human […] Y1 receptor at 10 uM relative to control"}, "[27]": {"assay": "Fraction unbound in human plasma at 5 uM after 4 hrs by equilibrium dialysis based LC/MS/MS analysis", "format": "ADME, cell-free"}, "[28]": {"assay": "Fraction unbound in rat brain homogenate at 5 uM after 6 hrs by equilibrium dialysis based LC/MS/MS analysis", "format": "ADME, tissue-based"}, "[29]": {"biological_target": "B2 bradykinin receptor (Homo sapiens) (UniProt P30411)", "sequence (P30411 whole entry)": "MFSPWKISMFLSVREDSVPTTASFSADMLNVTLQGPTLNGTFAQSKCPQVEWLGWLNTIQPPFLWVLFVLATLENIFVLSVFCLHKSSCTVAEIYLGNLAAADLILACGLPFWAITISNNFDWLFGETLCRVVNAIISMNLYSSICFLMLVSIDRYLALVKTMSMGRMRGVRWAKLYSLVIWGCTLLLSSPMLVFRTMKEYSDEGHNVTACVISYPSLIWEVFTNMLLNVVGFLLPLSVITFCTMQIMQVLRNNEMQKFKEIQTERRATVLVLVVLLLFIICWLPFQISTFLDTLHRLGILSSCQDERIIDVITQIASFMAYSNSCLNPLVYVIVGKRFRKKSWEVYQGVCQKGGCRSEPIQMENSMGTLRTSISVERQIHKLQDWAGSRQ", "assay": "Inhibition of human bradykinin B2 receptor at 10 uM relative to control"}, "Cytochrome P450 2C9": {"biological_target": "Cytochrome P450 2C9 (Homo sapiens, UniProt P11712)", "assay": "Inhibition of CYP2C9 in human liver microsomes using diclofenac as substrate after 15 mins in presence of NADPH by LC/MS/MS analysis", "format": "ADME"}, "[30]": {"biological_target": "L-type calcium channel, benzodiazepine site (Rattus norvegicus, UniProt P22002+P27732+Q02485)", "assay": "Inhibition of rat L-type calcium channel benzodiazepine site at 10 uM relative to control", "format": "protein assay"}, "[31]": {"biological_target": "5-hydroxytryptamine receptor 2B (Homo sapiens) (UniProt P41595)", "assay": "Inhibition of human 5-HT2B receptor at 10 uM relative to control"}, "[32]": {"biological_target": "Endothelin-1 receptor (Homo sapiens) (UniProt P25101)", "assay": "Inhibition of human endothelin A receptor at 10 uM relative to control"}, "[33]": {"biological_target": "L-type calcium channel, dihydropyridine site (Rattus norvegicus, UniProt P22002+P27732+Q02485)", "assay": "Inhibition of rat L-type calcium channel dihydropyridine site at 10 uM relative to control", "format": "protein assay"}, "[34]": {"biological_target": "Alpha-1B adrenergic receptor (Rattus norvegicus) (UniProt P15823)", "sequence (P15823 whole entry)": "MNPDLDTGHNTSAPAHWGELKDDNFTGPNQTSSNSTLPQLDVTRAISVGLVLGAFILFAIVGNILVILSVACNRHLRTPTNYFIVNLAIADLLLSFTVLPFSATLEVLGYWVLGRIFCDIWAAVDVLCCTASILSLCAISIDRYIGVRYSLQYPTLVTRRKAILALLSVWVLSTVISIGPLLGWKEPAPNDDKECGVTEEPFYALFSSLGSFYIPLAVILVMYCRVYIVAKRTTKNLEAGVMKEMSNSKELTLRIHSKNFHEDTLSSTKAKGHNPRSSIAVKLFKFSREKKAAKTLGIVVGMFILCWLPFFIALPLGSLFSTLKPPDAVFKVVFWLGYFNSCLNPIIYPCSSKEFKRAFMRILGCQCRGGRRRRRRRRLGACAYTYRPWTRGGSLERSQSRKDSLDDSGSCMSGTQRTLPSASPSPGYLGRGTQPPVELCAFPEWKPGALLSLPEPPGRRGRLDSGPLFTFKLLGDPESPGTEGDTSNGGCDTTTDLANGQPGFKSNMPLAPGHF", "assay": "Inhibition of rat adrenergic alpha 1B receptor at 10 uM relative to control"}, "[35]": {"biological_target": "Histamine H2 receptor (Homo sapiens) (UniProt P25021)", "assay": "Inhibition of human histamine H2 receptor at 10 uM relative to control"}, "[36]": {"assay": "Unbound brain-to-plasma concentration ratio in rat", "format": "ADME", "settings": "read-out: K(p,uu,brain)"}, "Homo sapiens": {"species": "Homo sapiens", "assay": "Inhibition of human nicotinic acetylcholine receptor at 10 uM relative to control"}},
  "note": "Activity calls are given as the source filed them. The calls are words filed in the database; no cut-off is given here.",
  "data": [
    {"compound": "C[C@@H](COc1ccn(-c2ccc(F)cc2)c(=O)c1)Oc1ccccc1", "values": [
      {"measurement": "inhibition", "setting": "[1]", "value": "> 50", "unit": "%"},
      {"measurement": "inhibition", "setting": "[2]", "value": "> 50", "unit": "%"},
      {"measurement": "inhibition", "setting": "[3]", "value": "> 50", "unit": "%"},
      {"measurement": "inhibition", "setting": "Rattus norvegicus [4]", "value": "> 50", "unit": "%"},
      {"measurement": "IC50", "setting": "Cytochrome P450 1A2", "value": "> 30", "unit": "µM"},
      {"measurement": "inhibition", "setting": "Rattus norvegicus [5]", "value": "> 50", "unit": "%"},
      {"measurement": "inhibition", "setting": "[6]", "value": "> 50", "unit": "%"},
      {"measurement": "inhibition", "setting": "[7]", "value": "> 50", "unit": "%"},
      {"measurement": "inhibition", "setting": "[8]", "value": "> 50", "unit": "%"},
      {"measurement": "IC50", "setting": "[9]", "value": 0.245, "unit": "µM"},
      {"measurement": "concentration", "setting": "[10]", "value": 1200, "unit": "nM"},
      {"measurement": "IC50", "setting": "[11]", "value": "> 30", "unit": "µM"},
      {"measurement": "inhibition", "setting": "[12]", "value": "> 50", "unit": "%"},
      {"measurement": "inhibition", "setting": "Rattus norvegicus [13]", "value": "> 50", "unit": "%"},
      {"measurement": "inhibition", "setting": "Oryctolagus cuniculus", "value": "> 50", "unit": "%"},
      {"measurement": "inhibition", "setting": "Rattus norvegicus [14]", "value": "> 50", "unit": "%"},
      {"measurement": "fu", "setting": "[15]", "value": 0.18},
      {"measurement": "inhibition", "setting": "[16]", "value": "inactive"},
      {"measurement": "Kp", "setting": "[17]", "value": 1.2},
      {"measurement": "inhibition", "setting": "[18]", "value": "> 50", "unit": "%"},
      {"measurement": "inhibition", "setting": "[19]", "value": "> 50", "unit": "%"},
      {"measurement": "inhibition", "setting": "[20]", "value": "> 50", "unit": "%"},
      {"measurement": "Activity", "setting": "Mus musculus", "value": "Active"},
      {"measurement": "inhibition", "setting": "[21]", "value": "> 50", "unit": "%"},
      {"measurement": "inhibition", "setting": "[22]", "value": "> 50", "unit": "%"},
      {"measurement": "inhibition", "setting": "Rattus norvegicus [23]", "value": "> 50", "unit": "%"},
      {"measurement": "inhibition", "setting": "[24]", "value": "> 50", "unit": "%"},
      {"measurement": "inhibition", "setting": "[25]", "value": "> 50", "unit": "%"},
      {"measurement": "inhibition", "setting": "[26]", "value": "> 50", "unit": "%"},
      {"measurement": "fraction unbound at 4 h, 5 µM", "setting": "[27]", "value": 0.18},
      {"measurement": "fraction unbound at 6 h, 5 µM", "setting": "[28]", "value": 0.06},
      {"measurement": "inhibition", "setting": "[29]", "value": "> 50", "unit": "%"},
      {"measurement": "IC50", "setting": "Cytochrome P450 2C9", "value": "> 30", "unit": "µM"},
      {"measurement": "inhibition at 10 µM", "setting": "[30]", "value": "> 50", "unit": "%"},
      {"measurement": "inhibition", "setting": "[31]", "value": "> 50", "unit": "%"},
      {"measurement": "inhibition", "setting": "[32]", "value": "> 50", "unit": "%"},
      {"measurement": "inhibition at 10 µM", "setting": "[33]", "value": "> 50", "unit": "%"},
      {"measurement": "inhibition", "setting": "[34]", "value": "> 50", "unit": "%"},
      {"measurement": "inhibition", "setting": "[35]", "value": "> 50", "unit": "%"},
      {"measurement": "Kp uu", "setting": "[36]", "value": 0.4},
      {"measurement": "inhibition", "setting": "Homo sapiens", "value": "> 50", "unit": "%"}
    ]}
  ]
}
